# System: autochthonous seawater bacteria
# Assay: Bacterial growth potential of antiscalants in natural seawater with an autochthonous bacterial population (flow cytometry)
# Type: cell-based
# Details: 50 mg L^−1 antiscalant, Red Sea water, 30° C. dark, 8 days, one-tail Wilcoxon signed-rank test
# Experimental: The natural seawater was serially filtered to remove microbial cells and to set a desired low initial cell concentration for the growth potential assay within approximately 10,000 to 20,000 bacterial cells mL^−1. This seawater was used in the method of the present disclosure.
# Natural seawater (1.0 L) was serially filtered through pre-cleaned 0.45 μm pore size and 0.2 μm pore size polyethersulfone filters (Satorius Stedium Minisart). The filters were replaced every 100 mL.
# 30 mL of the resulting filtered seawater with a bacterial cell concentration of 21,000±1200 cells mL^−1 was added to AOC-free 40 mL borosilicate glass vials with screw caps containing PTFE-lined silicone septa.
# Antiscalants from the 8 stock solutions (3 g L^−1) were added to 8 vials to obtain 8 mixtures comprising the antiscalant at a final concentration of 50 mg L^−1.
# Vials with no antiscalant addition were included as a control.
# The vials were incubated at 30° C. in the dark and bacterial growth was determined by measuring cell concentrations over time using flow cytometry. Each growth potential test was conducted in three independent biological replicates.
# Flow cytometry (FCM) was used to measure the bacterial cell concentration in the vials at an interval of 24 h.
# To this end, 5.0 μL SYBR Green I (Invitrogen, 100× diluted in 10 mM Tris buffer pH=8.1) were added to a final 0.5 mL vial samples in amber microfuge tubes followed by mixing and incubation for 10 min in the dark at 35° C.
# Stained cells were measured with a BD Accuri C6 instrument in fixed 50 μL volume mode with a sample flow rate of 35 μL min^−1. The blue 488 nm laser (50 mW) was used to collect the green fluorescence at FL1=533 30 nm, the red fluorescence FL3>670 nm, as well as intrinsic cell parameters were given by the side scattered (SSH) and forward scattered (FSH) light signals. Electronic gating was used to separate positive microbial stained signals from instrument, and water background noise as described by Prest et al. (2013).
# The instrument performance was verified using Spherotech 8-peak validation beads. […]
row,SMILES,bacterial growth compared to reference without antiscalant
1,"O=P(O)(O)CN(CP(=O)(O)O)CP(=O)(O)O [ATMP, amino trimethylene phosphonic acid]",promoted bacterial growth
2,"O=P(O)(O)CN(CCCCCCN(CP(=O)(O)O)CP(=O)(O)O)CP(=O)(O)O [HDTMP, hexamethylenediamine-tetra(methylenephosphonic acid)]",promoted bacterial growth
3,"CC(O)(P(=O)(O)O)P(=O)(O)O [HEDP, 1-hydroxyethylidene-(1,1-diphosphonic acid)]",did not promote bacterial growth

# Reference: patent US20250270615A1, “METHOD FOR DETECTING THE MICROBIAL GROWTH POTENTIAL OF AN ANTISCALANT COMPOSITION IN NATURAL SEAWATER” (ACWA POWER Company, priority 2024, published 2025)
